Structures can show the parent of a compound that is named as a salt.
Biological target: Bek (Homo sapiens, UniProt P21802)
Assay: Inhibitory activity against Bek-autophosphorylation using ELISA method in OCUM-2MD3 cells
Format: cell-based
Conditions: 1 hr with compound, read-out: IC50 (concentration necessary for inhibiting 50% of Bek-phosphorylation)
Procedure, shortened: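 OCUM-2MD3 human scirrhous gastric cancer cells in 0.1% FCS were exposed to compound for 1 hr at 37° C, then lysed. Phospho-tyrosine proteins were captured with anti-phosphotyrosine antibody, probed with anti-Bek antibody and peroxidase read-out (A450). Positive control (1000 nM) set 0%, untreated 100%; IC50 from multi-level dilutions.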

Bek, sequence (P21802 431-767 limits assumed): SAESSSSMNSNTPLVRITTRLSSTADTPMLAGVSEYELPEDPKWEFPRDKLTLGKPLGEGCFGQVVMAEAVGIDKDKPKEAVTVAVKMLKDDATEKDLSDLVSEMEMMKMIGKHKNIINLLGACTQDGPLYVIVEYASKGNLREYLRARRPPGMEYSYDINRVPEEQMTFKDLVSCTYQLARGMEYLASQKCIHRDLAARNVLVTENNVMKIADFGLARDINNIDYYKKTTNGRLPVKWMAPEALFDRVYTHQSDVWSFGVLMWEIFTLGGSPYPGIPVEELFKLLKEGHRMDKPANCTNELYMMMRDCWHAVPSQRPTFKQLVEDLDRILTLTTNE

Row | Compound | IC50 [nM]
1 | COc1cc2c(Oc3ccc(NC(=O)NCCC(C)(C)C)cc3)ccnc2cc1OCCCCCl [Compound 153, 1-{4-[7-(4-Chloro-butoxy)-6-methoxy-quinolin-4-yloxy]-phenyl}-3-(3,3-dimethyl-butyl)-urea] | 241
2 | COc1cc2c(Oc3ccc(NC(=O)NCCC(C)(C)C)cc3)ccnc2cc1OCCCCN1CCCCC1 [Compound 157, 1-(3,3-Dimethyl-butyl)-3-{4-[6-methoxy-7-(4-piperidin-1-yl-butoxy)-quinolin-4-yloxy]-phenyl}-urea hydrochloride] | 28.5
3 | COc1cc2c(Oc3ccc(NC(=O)NCCC(C)(C)C)cc3)ccnc2cc1OCCCCN1CCOCC1 [Compound 158, 1-(3,3-Dimethyl-butyl)-3-{4-[6-methoxy-7-(4-morpholin-4-yl-butoxy)-quinolin-4-yloxy]-phenyl}-urea hydrochloride] | 32.1
4 | COc1cc2c(Oc3ccc(NC(=O)NCCC(C)(C)C)cc3)ccnc2cc1OCCCCN1CCN(C)CC1 [Compound 159, 1-(3,3-Dimethyl-butyl)-3-(4-{6-methoxy-7-[4-(4-methyl-piperazin-1-yl)-butoxy]-quinolin-4-yloxy}-phenyl)-urea hydrochloride] | 26.2
5 | COc1cc2c(Oc3ccc(NC(=O)NCCC(C)(C)C)c(Cl)c3)ccnc2cc1OCCCCCl [Compound 162, 1-{2-Chloro-4-[7-(4-chloro-butoxy)-6-methoxy-quinolin-4-yloxy]-phenyl}-3-(3,3-dimethyl-butyl)-urea] | 252
6 | COc1cc2c(Oc3ccc(NC(=O)NCCC(C)(C)C)c(Cl)c3)ccnc2cc1OCc1ccccc1 [Compound 163, 1-[4-(7-Benzyloxy-6-methoxy-quinolin-4-yloxy)-2-chloro-phenyl]-3-(3,3-dimethyl-butyl)-urea] | 370
7 | COc1cc2c(Oc3ccc(NC(=O)NCCC(C)(C)C)c(Cl)c3)ccnc2cc1OCCCCN1C(=O)c2ccccc2C1=O [Compound 164, 1-(2-Chloro-4-{7-[4-(1,3-dioxo-1,3-dihydro-isoindol-2-yl)-butoxy]-6-methoxy-quinolin-4-yloxy}-phenyl)-3-(3,3-dimethyl-butyl)-urea] | 260
8 | CCN(CC)CCOc1cc2nccc(Oc3ccc(NC(=O)NCCC(C)(C)C)c(Cl)c3)c2cc1OC [Compound 167, 1-{2-Chloro-4-[7-(2-diethylamino-ethoxy)-6-methoxy-quinolin-4-yloxy]-phenyl}-3-(3,3-dimethyl-butyl)-urea] | 95
9 | COc1cc2c(Oc3ccc(NC(=O)NCCC(C)(C)C)c(Cl)c3)ccnc2cc1OCC1CCNCC1 [Compound 168, 1-{2-Chloro-4-[6-methoxy-7-(piperidin-4-ylmethoxy)-quinolin-4-yloxy]-phenyl}-3-(3,3-dimethyl-butyl)-urea] | 24
10 | COc1cc2c(Oc3ccc(NC(=O)NCCC(C)(C)C)c(Cl)c3)ccnc2cc1OCCN1C(=O)c2ccccc2C1=O [Compound 173, 1-(2-Chloro-4-{7-[2-(1,3-dioxo-1,3-dihydro-isoindol-2-yl)-ethoxy]-6-methoxy-quinolin-4-yloxy}-phenyl)-3-(3,3-dimethyl-butyl)-urea] | 153
11 | COc1cc2c(Oc3ccc(NC(=O)NCCC(C)(C)C)c(Cl)c3)ccnc2cc1OCCCCN [Compound 175, 1-{4-[7-(4-Amino-butoxy)-6-methoxy-quinolin-4-yloxy]-2-chloro-phenyl}-3-(3,3-dimethyl-butyl)-urea] | 21.7
12 | COc1cc2c(Oc3ccc(NC(=O)NCCC(C)(C)C)c(Cl)c3)ccnc2cc1OCCN(CCO)CCO [Compound 176, 1-[4-(7-{2-[Bis-(2-hydroxy-ethyl)-amino]-ethoxy}-6-methoxy-quinolin-4-yloxy)-2-chloro-phenyl]-3-(3,3-dimethyl-butyl)-urea] | < 10
13 | COc1cc2c(Oc3ccc(NC(=O)NCCC(C)(C)C)c(Cl)c3)ccnc2cc1OCCCN(CCO)CCO [Compound 184, 1-[4-(7-{3-[Bis-(2-hydroxy-ethyl)-amino]-propoxy}-6-methoxy-quinolin-4-yloxy)-2-chloro-phenyl]-3-(3,3-dimethyl-butyl)-urea] | 9.2

Continued, values first:

Row | IC50 [nM] | Compound
14 | 24.4 | COc1cc2c(Oc3ccc(NC(=O)NCCC(C)(C)C)cc3)ccnc2cc1OCCCN1CCCCC1 [Compound 154, 1-(3,3-Dimethyl-butyl)-3-{4-[6-methoxy-7-(3-piperidin-1-yl-propoxy)-quinolin-4-yloxy]-phenyl}-urea hydrochloride]
15 | 28.7 | COc1cc2c(Oc3ccc(NC(=O)NCCC(C)(C)C)cc3)ccnc2cc1OCCCN1CCOCC1 [Compound 155, 1-(3,3-Dimethyl-butyl)-3-{4-[6-methoxy-7-(3-morpholin-4-yl-propoxy)-quinolin-4-yloxy]-phenyl}-urea hydrochloride]
16 | 19.1 | COc1cc2c(Oc3ccc(NC(=O)NCCC(C)(C)C)cc3)ccnc2cc1OCCCN1CCN(C)CC1 [Compound 156, 1-(3,3-Dimethyl-butyl)-3-(4-{6-methoxy-7-[3-(4-methyl-piperazin-1-yl)-propoxy]-quinolin-4-yloxy}-phenyl)-urea hydrochloride]
17 | 23.5 | COc1cc2c(Oc3ccc(NC(=O)NCCC(C)(C)C)c(Cl)c3)ccnc2cc1OCCCl [Compound 160, 1-{2-Chloro-4-[7-(2-chloro-ethoxy)-6-methoxy-quinolin-4-yloxy]-phenyl}-3-(3,3-dimethyl-butyl)-urea]
18 | 189 | COc1cc2c(Oc3ccc(NC(=O)NCCC(C)(C)C)c(Cl)c3)ccnc2cc1OCCCCl [Compound 161, 1-{2-Chloro-4-[7-(3-chloro-propoxy)-6-methoxy-quinolin-4-yloxy]-phenyl}-3-(3,3-dimethyl-butyl)-urea]
19 | 68.9 | COc1cc2c(Oc3ccc(NC(=O)NCCC(C)(C)C)c(Cl)c3)ccnc2cc1OCCN1CCCC1 [Compound 165, 1-{2-Chloro-4-[6-methoxy-7-(2-pyrrolidin-1-yl-ethoxy)-quinolin-4-yloxy]-phenyl}-3-(3,3-dimethyl-butyl)-urea]
20 | 39 | COc1cc2c(Oc3ccc(NC(=O)NCCC(C)(C)C)c(Cl)c3)ccnc2cc1OCCN(C)C [Compound 166, 1-{2-Chloro-4-[7-(2-dimethylamino-ethoxy)-6-methoxy-quinolin-4-yloxy]-phenyl}-3-(3,3-dimethyl-butyl)-urea]
21 | 25.2 | COc1cc2c(Oc3ccc(NC(=O)NCCC(C)(C)C)c(Cl)c3)ccnc2cc1OCC1CCN(C)CC1 [Compound 169, 1-{2-Chloro-4-[6-methoxy-7-(1-methyl-piperidin-4-ylmethoxy)-quinolin-4-yloxy]-phenyl}-3-(3,3-dimethyl-butyl)-urea]
22 | 24.4 | COc1cc2c(Oc3ccc(NC(=O)NCCC(C)(C)C)c(Cl)c3)ccnc2cc1OCC1CCN(CCO)CC1 [Compound 170, 1-(2-Chloro-4-{7-[1-(2-hydroxy-ethyl)-piperidin-4-ylmethoxy]-6-methoxy-quinolin-4-yloxy}-phenyl)-3-(3,3-dimethyl-butyl)-urea]
23 | 32.4 | COCCN1CCC(COc2cc3nccc(Oc4ccc(NC(=O)NCCC(C)(C)C)c(Cl)c4)c3cc2OC)CC1 [Compound 171, 1-(2-Chloro-4-{6-methoxy-7-[1-(2-methoxy-ethyl)-piperidin-4-ylmethoxy]-quinolin-4-yloxy}-phenyl)-3-(3,3-dimethyl-butyl)-urea]
24 | < 10 | COc1cc2c(Oc3ccc(NC(=O)NCCC(C)(C)C)c(Cl)c3)ccnc2cc1OCCCN(C)C [Compound 172, 1-{2-Chloro-4-[7-(3-dimethylamino-propoxy)-6-methoxy-quinolin-4-yloxy]-phenyl}-3-(3,3-dimethyl-butyl)-urea]
25 | 10.6 | COc1cc2c(Oc3ccc(NC(=O)NCCC(C)(C)C)c(Cl)c3)ccnc2cc1OCCN(C)CCO [Compound 177, 1-[2-Chloro-4-(7-{2-[(2-hydroxy-ethyl)-methyl-amino]-ethoxy}-6-methoxy-quinolin-4-yloxy)-phenyl]-3-(3,3-dimethyl-butyl)-urea]
26 | < 10 | COc1cc2c(Oc3ccc(NC(=O)NCCC(C)(C)C)c(Cl)c3)ccnc2cc1OCCCN(C)CCO [Compound 178, 1-[2-Chloro-4-(7-{3-[(2-hydroxy-ethyl)-methyl-amino]-propoxy}-6-methoxy-quinolin-4-yloxy)-phenyl]-3-(3,3-dimethyl-butyl)-urea]
27 | 17.3 | COc1cc2c(Oc3ccc(NC(=O)NCCC(C)(C)C)c(Cl)c3)ccnc2cc1OCCCN1CCCC1 [Compound 179, 1-{2-Chloro-4-[6-methoxy-7-(3-pyrrolidin-1-yl-propoxy)-quinolin-4-yloxy]-phenyl}-3-(3,3-dimethyl-butyl)-urea]
28 | 22.7 | COc1cc2c(Oc3ccc(NC(=O)NCCC(C)(C)C)c(Cl)c3)ccnc2cc1OCCCN1CCCCC1 [Compound 180, 1-{2-Chloro-4-[6-methoxy-7-(3-piperidin-1-yl-propoxy)-quinolin-4-yloxy]-phenyl}-3-(3,3-dimethyl-butyl)-urea]
29 | 26.2 | COc1cc2c(Oc3ccc(NC(=O)NCCC(C)(C)C)c(Cl)c3)ccnc2cc1OCCCN1CCCCCC1 [Compound 181, 1-{4-[7-(3-Azepan-1-yl-propoxy)-6-methoxy-quinolin-4-yloxy]-2-chloro-phenyl}-3-(3,3-dimethyl-butyl)-urea]
30 | 9.5 | COc1cc2c(Oc3ccc(NC(=O)NCCC(C)(C)C)c(Cl)c3)ccnc2cc1OCCCN1CCOCC1 [Compound 182, 1-{2-Chloro-4-[6-methoxy-7-(3-morpholin-4-yl-propoxy)-quinolin-4-yloxy]-phenyl}-3-(3,3-dimethyl-butyl)-urea]
31 | 15.4 | CCN(CC)CCCOc1cc2nccc(Oc3ccc(NC(=O)NCCC(C)(C)C)c(Cl)c3)c2cc1OC [Compound 183, 1-{2-Chloro-4-[7-(3-diethylamino-propoxy)-6-methoxy-quinolin-4-yloxy]-phenyl}-3-(3,3-dimethyl-butyl)-urea]
32 | 54.8 | COc1cc2c(Oc3ccc(NC(=O)NCCC(C)(C)C)c(Cl)c3)ccnc2cc1OCCN1CCCCCC1 [Compound 185, 1-{4-[7-(2-Azepan-1-yl-ethoxy)-6-methoxy-quinolin-4-yloxy]-2-chloro-phenyl}-3-(3,3-dimethyl-butyl)-urea]

Source: patent US7495104B2, “Quinoline or quinazoline derivatives inhibiting auto-phosphorylation of fibroblast growth factor receptors” (Kirin Beer Kabushiki Kaisha, priority 2001, dated 2009)
